Source: publication PMC9506420, “Biological Evaluation of 3-Azaspiro[Bicyclo[3.1.0]Hexane-2,5′-Pyrimidines] as Potential Antitumor Agents” (International Journal of Molecular Sciences, 2022)
Where two headings read alike, the source gives them in different places.

Key:
[1] = system: human T lymphocyte (Jurkat) cell line; assay: MTS antiproliferative (cytotoxicity) assay, Jurkat; format: cell-based; details: for IC50: Homo sapiens, MTS; for SI (selectivity index), Jurkat: Vero as reference cell line
Method: The cytotoxicity of synthesized 3-azaspiro[bicyclo[3.1.0]hexane-2,5′-pyrimidines] 4 against human erythroleukemia (K562), cervical carcinoma (HeLa), and T lymphocyte (Jurkat), as well as mouse colon carcinoma (CT26) and African green monkey kidney epithelial (Vero) cell lines as reference, was evaluated in vitro by the standard MTS assay for 24 and 72 h. The results are presented in Figure 1, Figure 2, Figure 3, Figure 4 and Figure 5 (data on all, tested on K562, HeLa, and CT26 cell lines’ compounds, are given at SI, Figures S1–S3). […] Replacement of the phenyl group by either the carboxymethyl or N-isopropylcarbamoyl group has led to a significant decrease in the activity of spiro-fused cycloadducts comprising azabicyclo[3.1.0]hexane and alloxane moieties.
All the cell lines (human cervical carcinoma (HeLa), erythroleukemia (K-562), and T lymphocyte (Jurkat) as well as mouse colon carcinoma (CT26) and African green monkey kidney epithelial (Vero)) were obtained from the cell repository “Vertebrate cell culture collection” (supported by the Ministry of Science and Higher Education of the Russian Federation, agreement №075-15-2021-683, Institute of Cytology, Russian Academy of Sciences, Saint Petersburg, Russia). HeLa, Jurkat, and Vero cells were cultured in DMEM (HyClone, South Logan, UT, USA) supplemented with 10% (v/v) fetal bovine serum (Hyclone, GE Healthcare Life Sciences, Logan, UT, USA), and gentamicin (Sigma-Aldrich, St. Louis, MO, USA) at 37 °C in a humidified atmosphere with 5% CO2. K-562 and CT26 cells were grown at RPMI medium (Hyclone, GE Healthcare Life Sciences, Logan, UT, USA), with the same supplements and conditions.
To evaluate the in vitro toxicity of compounds synthesized, cells were seeded into 96-well plates at a density of 5 × 10^3 cells per well. On the next day, tested compounds were added to the wells at concentrations ranging from […], followed by incubation for 1 and 3 days. Cell proliferation was determined by adding 20 μL of MTS reagent (BioVision, Milpitas, CA, USA) stock solution per well. Each plate was incubated for 2 h at 37 °C in a humidified, 5% CO2 atmosphere. The plates were then read at 495 nm using plate spectrophotometer (Multiskan GO, Thermo Fisher Scientific, Waltham, MA, USA). All samples were measured in triplicates.

CT26 tumor = assay: In vivo evaluation in CT26 tumor-bearing Balb/C mice; details: for death of experimental animals by the end of the observation period: n = 7 per group, single i.p. 300 μL of 3 μM suspension, 10 days, control group one animal; for autopsy finding in the abdominal cavity (agglomerates of injected material): autopsy at end of experiment, diameter of up to 1 mm
Method: In vivo studies were performed using CT26 tumor-bearing Balb/C mice. After the average tumor volume reached approximately 270 mm^3, the mice were injected intraperitoneally with 300 μL of 3 μM suspension of compounds 4d, 4e, 4f, and 4i in 10% aq. DMSO solution. Mice in the control group were injected with 300 μL of 10% aq. DMSO solution. Observation of the animals continued for 10 days, with the measurement of tumor sizes two times a week.
All animals were bred and maintained in specific pathogen-free facilities in accordance with the Rus-LASA and FELASA guidelines. This study complied with all relevant ethical regulations for animal testing and research and received ethical approval from the Almazov National Medical Research Centre (protocol No. 21-02, dated 26 March 2021). Animal experiments were carried out in accordance with the principles of humane treatment of animals, regulated by requirements of Council of Europe 2006; European Convention for the Protection of Vertebrate Animals Used for Experimental and other Scientific Purposes (ETS No. 123); the European Parliament and the Council of the European Union 2010; Directive 2010/63/EU of the European Parliament and of the Council of 22 September 2010 on the Protection of Animals Used for Scientific Purposes; and FELASA guidelines. Male, 20–22 g, SPF Balb/C mice (Pushchino, Moscow region, Russian Federation) were used throughout. Animals were maintained at 22 ± 2 °C and relative humidity 50 ± 10% with 12 h light/dark cycle. All mice received water and food ad libitum. Animals were checked daily by the veterinarian, and their state of health was monitored continuously. Animal body weight was recorded every three days (GX-600 Precision Balance, A&D Weighing, San Jose, CA, USA).
The greatest transverse diameter (width) and the greatest longitudinal diameter (length) of a tumor were determined with a Vernier mechanical caliper. The tumor volume (V) was calculated using the following formula: V = length × width 2/2000 [50]. Mice were inoculated subcutaneously in the right flank, with 2 × 10^6 CT26 cells per mouse in PBS (Corning, Glendale, AZ, USA). Ten days later, when the average tumor volume reached […], the mice were randomized into groups (n = 7 per group). An amount of 300 μL of 3 μM suspension of compounds 4d, 4e, 4f, and 4i in 10% aq. DMSO solution was injected intraperitoneally at once. The control group was injected with 10% aq. DMSO solution only. The tumor volumes were monitored as described above, along with body weight. Mice were euthanized when the subcutaneous tumor reached a volume of […].

Vero cells = assay: Actin cytoskeleton staining (rhodamine-phalloidin, confocal microscopy), Vero; format: cell-based, African green monkey; details: 5 μg/mL, 24 h
Method: Therefore, in the current study, the actin cytoskeleton structure of HeLa, CT26, and Vero cells was analyzed, after the impact of compounds 4a–i, by the presence of filopodia-like protrusions and the availability of stress fibers (Figure 14, Figure 15 and Figure 16). […] HeLa cells were more sensitive to the action of tested products, compared to CT26 and Vero cells.
Cells were seeded onto Petri dishes with cover slips at a density of 2 × 10^5 cells per dish and incubated for 24 h. After that, cells were treated with compounds 4d, 4e, 4f, 4h, and 4i (5 μg/mL) for 24 h. The medium was removed, and cells were fixed with 4% paraformaldehyde (Sigma-Aldrich, St. Louis, MO, USA), washed three times with PBS, and permeabilized with 0.3% Triton-X100 (Sigma-Aldrich, St. Louis, MO, USA). The cells were rinsed three times with PBS. Actin filaments (microfilaments) were stained at 37 °C for 15 min with rhodamine-phalloidin (Invitrogen, Carlsbad, CA, USA). The samples were rinsed three times with PBS, followed by embedding in Fluoroshield medium (Sigma-Aldrich, St. Louis, MO, USA). Cells were imaged using an Axio Observer Z1 confocal microscope (Carl Zeiss MicroImaging GmbH, Jena, Germany). In each experiment, at least 30 cells were imaged. Images were analyzed by a pathologist, blinded to the treatment mode used for each group, using ImageJ software.

[2] = 24 h, read-out: IC50, Jurkat, 24 h
[3] = 72 h, read-out: IC50, Jurkat, 72 h

Row | SMILES | IC50 [1, 2] [µM] | IC50 [1, 3] [µM] | SI (selectivity index), Jurkat [1] | death of experimental animals by the end of the observation period (CT26 tumor) | autopsy finding in the abdominal cavity (agglomerates of injected material) (CT26 tumor; single i.p. injection) | percentage of cells with disassembled stress fibers (D) (Vero cells) [%] | percentage of cells with filopodia-like deformations (A) (Vero cells) [%] | percentage of cells with normal stress fibers (C) (Vero cells) [%] | percentage of cells without filopodia-like deformations (B) (Vero cells) [%] | macroscopic signs of acute toxicity at autopsy (CT26 tumor; single i.p. injection, autopsy of abdominal organs)
1 | CC[C@@H]1NC2(C(=O)NC(=O)NC2=O)[C@]2(c3ccccc3)[C@@H](c3ccccc3)[C@]12c1ccccc1 [Compound 4c] | 149 ± 33 | 15 ± 2 | 1.1 |  |  |  |  |  |  | 
2 | CCC[C@@H]1NC2(C(=O)NC(=O)NC2=O)[C@]2(c3ccccc3)[C@@H](c3ccccc3)[C@]12c1ccccc1 [Compound 4d] | 15 ± 2 | 13 ± 2 | 1.3 | No deaths | persistent, rounded, dense agglomerates of white or yellowish-white foreign material | 6 | 45 | 94 | 55 | 
3 | CC(C)C[C@@H]1NC2(C(=O)NC(=O)NC2=O)[C@]2(c3ccccc3)[C@@H](c3ccccc3)[C@]12c1ccccc1 [Compound 4f] | 11 ± 2 | 9 ± 2 | 1.2 | one |  | 4 | 43 | 96 | 57 | 
4 | CCCC[C@@H]1NC2(C(=O)NC(=O)NC2=O)[C@]2(c3ccccc3)[C@@H](c3ccccc3)[C@]12c1ccccc1 [Compound 4e] | 12 ± 2 | 9 ± 2 | 1.2 | two | persistent, rounded, dense agglomerates of white or yellowish-white foreign material | 11 | 44 | 89 | 56 | No signs of acute intoxication
5 | O=C1NC(=O)C2(N[C@@H](c3ccccc3)[C@@]3(c4ccccc4)[C@H](c4ccccc4)[C@@]23c2ccccc2)C(=O)N1 [Compound 4i] | 19 ± 2 | 14 ± 4 | 1.7 | three | persistent, rounded, dense agglomerates of white or yellowish-white foreign material | 2 | 30 | 98 | 70 | 
6 | CSCC[C@@H]1NC2(C(=O)NC(=O)NC2=O)[C@]2(c3ccccc3)[C@@H](c3ccccc3)[C@]12c1ccccc1 [Compound 4h] | 18 ± 4 | 13 ± 4 | 1.7 |  |  | 8 | 46 | 92 | 54 | 
7 | CCCCCC[C@@H]1NC2(C(=O)NC(=O)NC2=O)[C@]2(c3ccccc3)[C@@H](c3ccccc3)[C@]12c1ccccc1 [Compound 4g] | 11 ± 2 | 8 ± 2 | 1.8 |  |  |  |  |  |  | 
